In patent US8475783B2, “Apparatus and method for generating carbon dioxide as an attractant for biting arthropods” (priority 2011, dated 2013):

Tested on: mosquitoes
Experiment: Field mosquito collection with CDC-type mosquito trap baited with carbon dioxide
Format: in vivo
Conditions: for mosquitoes collected: carbon dioxide flow rate 250 mL/min
Procedure: As in Example 2, except that the sodium bicarbonate was delivered at 0.94 g·min so as to give a carbon dioxide flow rate of 250 mL/min. The gas outlet was coupled to a CDC-type mosquito trap, available from the John W. Hock Company of Gainesville Fla., and allowed to collect mosquitoes for 12 hours. For comparison, a similar trap but with carbon dioxide from a tank was placed about 100 m away. Sites were selected so as to provide a testing area that is known to be infested by mosquitoes and to provide similar terrain. In the comparison apparatus care was taken to use the same carbon dioxide flow rate.

Work on O=C=O [CO2 Gas Tank, carbon dioxide] yielded a mosquitoes collected (Aug. 2, 2010, 12 hours) of 12, a mosquitoes collected (Aug. 5, 2010, 12 hours) of 1 and a mosquitoes collected (Jul. 8, 2010, 12 hours) of 73. It also gave a mosquitoes collected (Jul. 12, 2010, 12 hours) of 49, a mosquitoes collected (Jul. 14, 2010, 12 hours) of 14 and a mosquitoes collected (Jul. 15, 2010, 12 hours) of 73. It also gave a mosquitoes collected (Jul. 20, 2010, 12 hours) of 53, a mosquitoes collected (Jun. 23, 2010, 12 hours) of 99 and a mosquitoes collected (Jun. 29, 2010, 12 hours) of 34. The “Total collected (mosquitoes)” value (sum over 9 non-consecutive days, 12 hours each, 250 mL/min carbon dioxide) was 408.
